Experimental data reported in US10041096B2, “Methods and products for generating oils” (The Texas A&M University System, priority 2011, dated 2018).

Experiments:
Assay type in all cases: cell-based
P. Parvum [1] = test: Oil secretion in P. Parvum cultures after glyburide (surface sheen, TLC of supernatant extract)
Method: A control culture of P. Parvum was grown and split into two 500 mL cultures. Glyburide was added to one of the cultures and the culture was shaken for 24 h.
A 1 L P. parvum culture (˜2 million cells/mL) treated with oxamate was split into two subcultures of 400 mL each. Glyburide dissolved in DMSO was added to one subculture. The other subculture received the DMSO carrier (control) that the glyburide had been dissolved in. The two cultures were incubated on the shaker for 24 h and subsequently off the shaker for ˜2 h.
The cells were then pelleted and a 200 mL sample of the culture supernatant was removed from each culture. Each of the removed samples was briefly extracted with nonpolar solvent. The organic extracts were then dried down and the remainder was resuspended in an equal volume of solvent. An equal volume of each (as well as pure TAG as a standard) was loaded on a TLC plate. A chromatogram was developed and stained with iodine vapors. […] Both subcultures had similar amounts of phospholipids (PL). This is likely due to the presence of dead cell membranes in the supernatant extract. Both test samples also had either some monoglycerides (MG) or more likely, the pigment fucoxanthin.

KAS603, a Chlorella sp. [2] = test: Culture growth: dry weight density and chlorophyll a during compound treatment; conditions: four 80 L cultures during the treatment period
Method: Algal growth: KAS603, a Chlorella sp. was scaled in F/2 growth medium to ˜300 L in a vertical air lift bioreactor under 12/12 artificial illumination. Growth of the culture was monitored for density, chlorophyll accumulation, and for the presence of invasive species. Growth kinetics were typical and observation of invasive species was limited (sparse bacteria) and typical. The algae were grown under nutrient rich and light limiting conditions. […] Dry Weight Analysis: 10 ml of control and treated culture samples were pelleted via centrifugation at 3000 rpm for 5 minutes. The pellet was washed 1× with dH2O to remove salts. Following a second centrifugation step, the pellet was transferred to a pre-weighed aluminum dish and dried to a constant weight at 26.5° C. Cellular Growth/Density: Cellular growth and density can be characterized by the concentration of chlorophyll a in a sample. Chlorophyll a absorbs light at 435 nm and 680 nm, which can be accurately measured spectrophotometrically. Prior to the dry weight analysis, 10 ml samples were analyzed for absorbance at 435 nm and 680 nm. Based on the established chlorophyll a standard curve, chlorophyll a was calculated and reported as “mg chlorophyll a”.

algal cells = test: Nile Red fluorescence in growth medium after glyburide; conditions: following treatment with glyburide
KAS603, a Chlorella sp. [3] = test: Recovery and measurement of extracellular lipids (hexane sweep, weight, HPLC, TLC) after glyburide treatment; conditions: for Weights of oil recovered from outside cells following glyburide treatment: from 1 L of culture
Method: Glyburide Dosing: After 48 hours, the sodium oxamate time course was complete. A 1 L sample of each culture was collected and treated to recover oil outside the cells (if any) at t=0. The three cultures that had previously been treated with sodium oxamate were subsequently treated with 0.05 mM glyburide. Extracellular lipids in 1 L aliquots of the cultures were collected at 4 hours and 24 hours after the addition of glyburide by hexane sweep; dry cell weights were also calculated on separate aliquots of the culture. Oils recovered were analyzed via TLC and HPLC.
(§1) Algal growth: KAS603, a Chlorella sp. was scaled in F/2 growth medium to ˜300 L in a vertical air lift bioreactor under 12/12 artificial illumination. Growth of the culture was monitored for density, chlorophyll accumulation, and for the presence of invasive species. Growth kinetics were typical and observation of invasive species was limited (sparse bacteria) and typical. The algae were grown under nutrient rich and light limiting conditions.
(§2) Lipid Analyses: TLC—Dried extracts were resuspended in 100 μl of CHCl3. 2.5 μl of each sample was spotted onto silica gel matrix TLC plates (Sigma #2599) and resolved with hexane:diethyl ether:acetic acid (80:20:1). Carotenoids such as β-carotene were visible as yellow bands on the plate, while chlorophyll and chlorophyll breakdown products were visible as green or green/gray bands, respectively. Lipids other than carotenoids and chlorophyll were visualized with iodine vapors. The extracted samples were compared to commercially available lipid standards consisting of 1 μg/μl each of glyceryl trioleate (TAG), 1,3-Diolein (1,3 DAG), 1,2-dioleoyl-rac-glycerol (1,2 DAG), monoolein (MAG), and oleic acid (FFA).
Recovery and Measurement of Extracellular Lipids: Cells that were exposed to the secretion compound glyburide were swept briefly with hexane at room temperature. 50 ml of hexane was added to 1 L samples from each study group, then mixed thoroughly, but gently, by inversion. The cells were re-centrifuged and the hexane layer containing the recovered lipids was transferred to a pre-weighed vial. The hexane was evaporated and the dried lipids were re-weighed. The dried lipids were subsequently analyzed by TLC or HPLC/MS as described.

Chlorella sp. = test: Nile Red fluorescence within cells after sodium oxamate; conditions: range of sodium oxamate concentrations
Schizochytrium sp. = test: as above; conditions: range of sodium oxamate concentrations
P. Parvum [4] = test: as above; conditions: range of sodium oxamate concentrations
P. Parvum [5] = test: Growth curves of oxamate treated algae (spike-in); conditions: small-scale cultures, oxamate added every three days, vs growth medium only
Method: Small-scale […] P. Parvum cultures were grown and treated with oxamate. Four (A-D in FIG. 13) of the small scale cultures were treated with oxamate stock in growth medium, added every three days, corresponding to the points on the curve. Two (E-F in FIG. 13) of the cultures had only growth medium added.

KAS603, a Chlorella sp. [6] = test: Total lipid extraction with HPLC/TLC lipid profile after sodium oxamate treatment
Method: Sodium Oxamate Dosing: Sodium oxamate was added to three of the four cultures (see FIG. 1). A 1 L sample was collected at time 0, 24 and 48 hours for each culture (a total of 4 samples per time point). The algal cells were pelleted and oils extracted at each time point. Quantitative oil profiles of extracted lipids were generated by TLC and HPLC.
as §1
Total lipid extraction: 1 L samples were pelleted via centrifugation at 3000 rpm for 5 min. The pellets were resuspended in 10 ml of methanol and incubated at 65° C. for 1 h. The methanol was replaced with chloroform and incubated at 50° C. for 10 min. The chloroform was replaced with hexane and incubated at 50° C. for an additional 10 min. The extracts were pooled and distilled. The weights of the dried extracts were recorded prior to resuspension in 100 μl chloroform for TLC analysis, or in 2:1 chloroform:methanol (v/v) to a final concentration of ˜10 mg/mL and loaded for HPLC analysis (Surveyor LC Pump and Autosampler Plus, Thermo Finnegan). A splitter (Analytical Scientific Instruments) was employed to divide the sample 1:20 between a quadrapole MS (Thermo Finnegan MSQ Plus) and an ELSD (Sedere Sedex 75), respectively.
as §2

COc1ccc(Cl)cc1C(=O)NCCc1ccc(S(=O)(=O)NC(=O)NC2CCCCC2)cc1 [glyburide]
oily sheen on the culture surface (P. Parvum [1]; 500 mL culture, glyburide 24 h, no oxamate, vs control culture): much more prevalent
lipid (TAG) in culture supernatant extract, TLC (P. Parvum [1]; glyburide/oxamate-treated subculture vs DMSO control on oxamate): increase the production and/or secretion of lipid, specifically triacylglyceride (TAG)
swirls of secreted oil on the culture surface (P. Parvum [1]; oxamate treated culture, 400 mL subculture, glyburide in DMSO 24 h, control had very few swirls): a number of swirls on the surface
effect of compound treatment on culture growth (KAS603, a Chlorella sp. [2]): no evidence that compound treatment slowed growth
Nile Red fluorescence in the growth medium environment (algal cells): an increase in Nile Red fluorescence
β-carotene and chlorophyll outside the cells (HPLC) (KAS603, a Chlorella sp. [3]; 0.05 mM glyburide for 24 hrs): neither β-carotene nor chlorophyll were detected outside the cells
appearance of raw hexane extractions (KAS603, a Chlorella sp. [3]; 0.05 mM glyburide, control group not coloured): visibly colored
external oil recovered by hexane sweep (in words) (KAS603, a Chlorella sp. [3]; 4 hours after glyburide): no immediate increases in external oil
external oil recovered by hexane sweep (in words) (KAS603, a Chlorella sp. [3]; 24 hours after glyburide exposure): significantly larger quantities of oil were recovered
Weights of oil recovered from outside cells following glyburide treatment (KAS603, a Chlorella sp. [3]; T = 0 (at glyburide addition), cultures pre-treated 48 h with 0.3 mM sodium oxamate, listed as GLB1): 0.0003 g
Weights of oil recovered from outside cells following glyburide treatment (KAS603, a Chlorella sp. [3]; T = 0 (at glyburide addition), cultures pre-treated 48 h with 0.3 mM sodium oxamate, listed as GLB2): 0.0002 g
Weights of oil recovered from outside cells following glyburide treatment (KAS603, a Chlorella sp. [3]; T = 0 (at glyburide addition), cultures pre-treated 48 h with 0.3 mM sodium oxamate, listed as GLB3): 0.0003 g
Weights of oil recovered from outside cells following glyburide treatment (KAS603, a Chlorella sp. [3]; T = 4 hours after 0.05 mM glyburide, oxamate pre-treated cultures, listed as GLB1): 0.0002 g
Weights of oil recovered from outside cells following glyburide treatment (KAS603, a Chlorella sp. [3]; T = 4 hours after 0.05 mM glyburide, oxamate pre-treated cultures, listed as GLB2): 0.0004 g
Weights of oil recovered from outside cells following glyburide treatment (KAS603, a Chlorella sp. [3]; T = 4 hours after 0.05 mM glyburide, oxamate pre-treated cultures, listed as GLB3): 0.0004 g
Weights of oil recovered from outside cells following glyburide treatment (KAS603, a Chlorella sp. [3]; T = 24 hours after 0.05 mM glyburide, oxamate pre-treated cultures, listed as GLB1): 0.0016 g
Weights of oil recovered from outside cells following glyburide treatment (KAS603, a Chlorella sp. [3]; T = 24 hours after 0.05 mM glyburide, oxamate pre-treated cultures, listed as GLB2): 0.0014 g
Weights of oil recovered from outside cells following glyburide treatment (KAS603, a Chlorella sp. [3]; T = 24 hours after 0.05 mM glyburide, oxamate pre-treated cultures, listed as GLB3): 0.0013 g
quantity of lipid species of intermediate polarity (between FFA and 1,3DG) in extracellular lipids, TLC (KAS603, a Chlorella sp. [3]; glyburide treated groups vs control): significantly increased
external hydrocarbon (HPLC) (KAS603, a Chlorella sp. [3]; glyburide treated vs untreated, 24 h): An increase in external hydrocarbon

NC(=O)C(=O)[O-].[Na+] [sodium oxamate]
Nile Red fluorescence within cells (Chlorella sp.): increases in Nile Red fluorescence
Nile Red fluorescence within cells (Schizochytrium sp.): increases in Nile Red fluorescence
Nile Red fluorescence within cells (P. Parvum [4]): increases in Nile Red fluorescence
cell concentrations achieved (P. Parvum [5]): higher cell concentrations than did the controls
onset of culture decline (P. Parvum [5]): began to decline sooner than the controls
uncharacterized polar lipids (HPLC) (KAS603, a Chlorella sp. [6]; 0.3 mM sodium oxamate at 48 h vs untreated control at time 0): increases in uncharacterized polar lipids
chlorophyll and total lipids in total extracts (HPLC) (KAS603, a Chlorella sp. [6]; 0.3 mM sodium oxamate, treated versus untreated groups): increases in chlorophyll and total lipids were detected
TAG accumulation in oil extracts (KAS603, a Chlorella sp. [6]; 0.3 mM sodium oxamate, up to 48 h): Significant TAG accumulation was not found
quantity of "other" lipid species (KAS603, a Chlorella sp. [6]; oxamate treated cultures vs untreated): trended higher
undefined lipids (UN) in total extracts by TLC (KAS603, a Chlorella sp. [6]; oxamate treated vs untreated groups): did not differ between treated and untreated groups
Hydrocarbon (HC) and β-carotene (BC) concentrations, TLC of total extracts (KAS603, a Chlorella sp. [6]; throughout the oxamate treatment phase): remained consistent
effect of compound treatment on culture growth (KAS603, a Chlorella sp. [2]): no evidence that compound treatment slowed growth
